Results from the NIST ThermoML archive (doi:10.1016/j.jct.2007.05.011).

Assay: xn = mol fraction of the nth substance listed
Conditions: 101 kPa, Liquid; for mass density: Vibrating tube method

NCCO.O=CO [2-hydroxyethylammonium formate] + O
Conditions	mass density [kg/m3]	speed of sound [m/s]
288.15 K, x2 = 0	1183.57	1733.9
288.15 K, x2 = 0.047	1182.89	1759.2
288.15 K, x2 = 0.108	1181.45	1760.3
288.15 K, x2 = 0.199	1178.55	1761.4
288.15 K, x2 = 0.311	1173.68	1761.4
288.15 K, x2 = 0.4	1168.78	1759.7
288.15 K, x2 = 0.492	1162.23	1757.1
288.15 K, x2 = 0.601	1151.56	1749.9
288.15 K, x2 = 0.699	1137.39	1739.3
288.15 K, x2 = 0.8	1114.92	1710.8
288.15 K, x2 = 0.9	1076.21	1644.7
288.15 K, x2 = 0.95	1045.03	1578.9
290.65 K, x2 = 0	1181.81	1727.4
290.65 K, x2 = 0.047	1181.24	1754
290.65 K, x2 = 0.108	1179.79	1755.5
290.65 K, x2 = 0.199	1176.92	1756.4
290.65 K, x2 = 0.311	1172.05	1756.7
290.65 K, x2 = 0.4	1167.17	1755.1
290.65 K, x2 = 0.492	1160.63	1752.9
290.65 K, x2 = 0.601	1149.99	1746.3
290.65 K, x2 = 0.699	1135.87	1736.3
290.65 K, x2 = 0.8	1113.52	1709.2
290.65 K, x2 = 0.9	1075.06	1645.8
290.65 K, x2 = 0.95	1044.13	1582.3
293.15 K, x2 = 0	1180.04	1721.3
293.15 K, x2 = 0.047	1179.6	1748.9
293.15 K, x2 = 0.108	1178.13	1750.5
293.15 K, x2 = 0.199	1175.29	1751.4
293.15 K, x2 = 0.311	1170.43	1752
293.15 K, x2 = 0.4	1165.55	1750.6
293.15 K, x2 = 0.492	1159.04	1748.7
293.15 K, x2 = 0.601	1148.42	1742.6
293.15 K, x2 = 0.699	1134.35	1733.3
293.15 K, x2 = 0.8	1112.1	1707.5
293.15 K, x2 = 0.9	1073.89	1646.8
293.15 K, x2 = 0.95	1043.2	1585.6
295.65 K, x2 = 0	1178.27	1715.1
295.65 K, x2 = 0.047	1177.95	1743.8
295.65 K, x2 = 0.108	1176.52	1745.4
295.65 K, x2 = 0.199	1173.65	1746.5
295.65 K, x2 = 0.311	1168.8	1747.2
295.65 K, x2 = 0.4	1163.94	1746.1
295.65 K, x2 = 0.492	1157.44	1744.4
295.65 K, x2 = 0.601	1146.85	1738.9
295.65 K, x2 = 0.699	1132.83	1730.2
295.65 K, x2 = 0.8	1110.67	1705.6
295.65 K, x2 = 0.9	1072.7	1647.6
295.65 K, x2 = 0.95	1042.26	1588.8
298.15 K, x2 = 0	1176.49	1709
298.15 K, x2 = 0.047	1176.31	1738.7
298.15 K, x2 = 0.108	1174.91	1740.4
298.15 K, x2 = 0.199	1172.02	1741.6
298.15 K, x2 = 0.311	1167.18	1742.5
298.15 K, x2 = 0.4	1162.32	1741.6
298.15 K, x2 = 0.492	1155.83	1740.2
298.15 K, x2 = 0.601	1145.28	1735.1
298.15 K, x2 = 0.699	1131.3	1727.1
298.15 K, x2 = 0.8	1109.23	1703.7
298.15 K, x2 = 0.9	1071.48	1648.3
298.15 K, x2 = 0.95	1041.28	1591.7
300.65 K, x2 = 0	1174.71	1702.9
300.65 K, x2 = 0.047	1174.67	1733.6
300.65 K, x2 = 0.108	1173.29	1735.3
300.65 K, x2 = 0.199	1170.39	1736.7
300.65 K, x2 = 0.311	1165.55	1737.8
300.65 K, x2 = 0.4	1160.7	1737.1
300.65 K, x2 = 0.492	1154.23	1735.9
300.65 K, x2 = 0.601	1143.7	1731.2
300.65 K, x2 = 0.699	1129.77	1723.9
300.65 K, x2 = 0.8	1107.79	1701.8
300.65 K, x2 = 0.9	1070.24	1648.7
300.65 K, x2 = 0.95	1040.27	1594.4
303.15 K, x2 = 0	1172.94	1696.8
303.15 K, x2 = 0.047	1173.02	1728.5
303.15 K, x2 = 0.108	1171.66	1730.3
303.15 K, x2 = 0.199	1168.76	1731.8
303.15 K, x2 = 0.311	1163.93	1733.1
303.15 K, x2 = 0.4	1159.09	1732.6
303.15 K, x2 = 0.492	1152.62	1731.6
303.15 K, x2 = 0.601	1142.12	1727.4
303.15 K, x2 = 0.699	1128.22	1720.7
303.15 K, x2 = 0.8	1106.33	1699.7
303.15 K, x2 = 0.9	1068.98	1649
303.15 K, x2 = 0.95	1039.22	1596.8
305.65 K, x2 = 0	1171.16	1690.8
305.65 K, x2 = 0.047	1171.38	1723.5
305.65 K, x2 = 0.108	1170.03	1725.2
305.65 K, x2 = 0.199	1167.12	1726.8
305.65 K, x2 = 0.311	1162.3	1728.3
305.65 K, x2 = 0.4	1157.47	1728
305.65 K, x2 = 0.492	1151.02	1727.3
305.65 K, x2 = 0.601	1140.53	1723.5
305.65 K, x2 = 0.699	1126.67	1717.4
305.65 K, x2 = 0.8	1104.86	1697.5
305.65 K, x2 = 0.9	1067.69	1649
305.65 K, x2 = 0.95	1038.12	1598.9
308.15 K, x2 = 0	1169.39	1684.8
308.15 K, x2 = 0.047	1169.74	1718.4
308.15 K, x2 = 0.108	1168.41	1720.2
308.15 K, x2 = 0.199	1165.49	1721.9
308.15 K, x2 = 0.311	1160.67	1723.6
308.15 K, x2 = 0.4	1155.85	1723.5
308.15 K, x2 = 0.492	1149.4	1723
308.15 K, x2 = 0.601	1138.94	1719.6
308.15 K, x2 = 0.699	1125.12	1714.1
308.15 K, x2 = 0.8	1103.38	1695.2
308.15 K, x2 = 0.9	1066.39	1648.9
308.15 K, x2 = 0.95	1036.99	1600.8
310.65 K, x2 = 0	1167.62	1678.7
310.65 K, x2 = 0.047	1168.1	1713.4
310.65 K, x2 = 0.108	1166.77	1715.2
310.65 K, x2 = 0.199	1163.86	1717.1
310.65 K, x2 = 0.311	1159.05	1718.9
310.65 K, x2 = 0.4	1154.22	1718.9
310.65 K, x2 = 0.492	1147.79	1718.7
310.65 K, x2 = 0.601	1137.34	1715.6
310.65 K, x2 = 0.699	1123.56	1710.7
310.65 K, x2 = 0.8	1101.88	1692.8
310.65 K, x2 = 0.9	1065.06	1648.6
310.65 K, x2 = 0.95	1035.83	1602.4
313.15 K, x2 = 0	1165.84	1672.7
313.15 K, x2 = 0.047	1166.46	1708.3
313.15 K, x2 = 0.108	1165.14	1710.2
313.15 K, x2 = 0.199	1162.22	1712.1
313.15 K, x2 = 0.311	1157.42	1714.1
313.15 K, x2 = 0.4	1152.6	1714.4
313.15 K, x2 = 0.492	1146.17	1714.3
313.15 K, x2 = 0.601	1135.74	1711.7
313.15 K, x2 = 0.699	1121.98	1707.2
313.15 K, x2 = 0.8	1100.38	1690.4
313.15 K, x2 = 0.9	1063.71	1648.2
313.15 K, x2 = 0.95	1034.64	1603.8
315.65 K, x2 = 0	1164.06	1666.7
315.65 K, x2 = 0.047	1164.82	1703.3
315.65 K, x2 = 0.108	1163.51	1705.2
315.65 K, x2 = 0.199	1160.59	1707.2
315.65 K, x2 = 0.311	1155.79	1709.4
315.65 K, x2 = 0.4	1150.97	1709.8
315.65 K, x2 = 0.492	1144.56	1710
315.65 K, x2 = 0.601	1134.13	1707.6
315.65 K, x2 = 0.699	1120.4	1703.7
315.65 K, x2 = 0.8	1098.86	1687.8
315.65 K, x2 = 0.9	1062.35	1647.5
315.65 K, x2 = 0.95	1033.42	1604.9
318.15 K, x2 = 0	1162.29	1660.8
318.15 K, x2 = 0.047	1163.18	1698.3
318.15 K, x2 = 0.108	1161.88	1700.2
318.15 K, x2 = 0.199	1158.96	1702.4
318.15 K, x2 = 0.311	1154.16	1704.7
318.15 K, x2 = 0.4	1149.34	1705.2
318.15 K, x2 = 0.492	1142.94	1705.6
318.15 K, x2 = 0.601	1132.52	1703.6
318.15 K, x2 = 0.699	1118.82	1700.2
318.15 K, x2 = 0.8	1097.33	1685.1
318.15 K, x2 = 0.9	1060.95	1646.7
318.15 K, x2 = 0.95	1032.17	1605.8
320.65 K, x2 = 0	1160.51	1654.8
320.65 K, x2 = 0.047	1161.55	1693.3
320.65 K, x2 = 0.108	1160.25	1695.3
320.65 K, x2 = 0.199	1157.34	1697.5
320.65 K, x2 = 0.311	1152.53	1699.9
320.65 K, x2 = 0.4	1147.7	1700.6
320.65 K, x2 = 0.492	1141.31	1701.2
320.65 K, x2 = 0.601	1130.9	1699.5
320.65 K, x2 = 0.699	1117.22	1696.5
320.65 K, x2 = 0.8	1095.78	1682.4
320.65 K, x2 = 0.9	1059.54	1645.7
320.65 K, x2 = 0.95	1030.89	1606.4
323.15 K, x2 = 0	1158.73	1648.9
323.15 K, x2 = 0.047	1159.94	1688.4
323.15 K, x2 = 0.108	1158.62	1690.5
323.15 K, x2 = 0.199	1155.72	1692.7
323.15 K, x2 = 0.311	1150.91	1695.2
323.15 K, x2 = 0.4	1146.05	1696
323.15 K, x2 = 0.492	1139.69	1696.8
323.15 K, x2 = 0.601	1129.29	1695.4
323.15 K, x2 = 0.699	1115.62	1692.8
323.15 K, x2 = 0.8	1094.23	1679.5
323.15 K, x2 = 0.9	1058.12	1644.6
323.15 K, x2 = 0.95	1029.58	1606.8
